Experimental data published in US7226915B2, “Diaminopyrroloquinazolines compounds as protein tyrosine phosphatase inhibitors” (Hoffmann-La Roche Inc., priority 2003, dated 2007).
Structures can show the parent of a compound that is named as a salt.

Biological target: T1, Human PTP1B (1-321) (Homo sapiens, UniProt P18031)
T1 construct: Human PTP1B (1-321) was cloned from a human cDNA library; made in house; host or cells: E. coli
T1 sequence (P18031 1-321): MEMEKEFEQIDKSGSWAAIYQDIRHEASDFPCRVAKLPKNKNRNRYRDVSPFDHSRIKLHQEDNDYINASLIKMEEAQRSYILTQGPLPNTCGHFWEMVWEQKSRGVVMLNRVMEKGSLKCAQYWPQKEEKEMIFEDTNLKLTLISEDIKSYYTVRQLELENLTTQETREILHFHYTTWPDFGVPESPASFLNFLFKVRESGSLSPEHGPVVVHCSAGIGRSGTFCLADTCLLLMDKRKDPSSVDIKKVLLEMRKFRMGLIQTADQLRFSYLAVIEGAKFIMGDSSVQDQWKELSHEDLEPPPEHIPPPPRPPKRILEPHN
Test: In vitro inhibition of PTP1B (PTPase assay)
Assay type: biochemical
Settings: one of two methods: phosphopeptide substrate TRDI(pY)E with Malachite Green, or DiFMUP fluorescence; pH 6.2; read-out: IC50 (PTP1B inhibitory activity)
Description: Human PTP1B (1-321) was cloned from a human cDNA library using conventional molecular biology techniques. The cDNA sequence was identical to the published human PTP1B sequence (Accession number M33689). The protein was expressed and purified from E. coli as described by Barford D. et. al J. Mol Biol (1994) 239, 726–730.
The measurement of PTPase activity was carried out using one of two methods:
The first method for the measurement of PTP1B inhibitory activity a tyrosine phosphorylated peptide based on the amino acid sequence of insulin receptor tyrosine autophosphorylation site 1146 (TRDI(pY)E) was used as substrate. The reaction conditions were as follows:
PTP1B (0.5–2 nM) was incubated with compound for 15 min in buffer containing 37.5 mM Bis-Tris buffer pH 6.2, 140 mMNaCl, 0.05% BSA and 2 mM DTT. The reaction was started by the addition of 50 μM substrate. After 20 min at room temperature (22–25° C.), the reaction was stopped with KOH and the amount of free phosphate measured using Malachite Green as previously described (Harder et al. 1994 Biochem J. 298; 395).
The second method was used for the measurement of general PTPase inhibitory activity across a panel of PTPases the substrate (6,8-difluoro-4-methylumbelliferyl phosphate (DiFMUP; from Molecular Probes) was used at the Km for each enzyme. The buffer conditions were identical as in the Malachite Green assay. The reaction was stopped with KOH. In this case the dephosphoryated product becomes fluorescent and the fluorescense read (Excitiation:360 mM/Emmission: 460 nM).

Row | IC50 [µM] | SMILES
1 | 10.2 | Cn1ccc2c3c(NCCCO)nc(N)nc3cc(-c3ccccc3C(F)(F)F)c21 [Example 6, 3-[3-Amino-7-methyl-6-(2-trifluoromethyl-phenyl)-7H-pyrrolo[3,2-f]quinazolin-1-ylamino]-propan-1-ol trifluoro-acetic acid salt]
2 | 7.1 | Cc1ccc(-c2cc3nc(N)nc(NCCO)c3c3ccn(C)c23)s1 [Example 2, 2-[3-Amino-7-methyl-6-(5-methyl-thiophen-2-yl)-7H-pyrrolo[3,2-f]quinazolin-1-ylamino]-ethanol trifluoro-acetic acid salt]
3 | 9.47 | CN(C)c1nc(N)nc2cc(-c3ccccc3C(F)(F)F)c3c(ccn3C)c12 [Example 4, 7,N1,N1-Trimethyl-6-(2-trifluoromethyl-phenyl)-7H-pyrrolo[3,2-f]quinazoline-1,3-diamine trifluoro-acetic acid salt]
4 | 11.3 | Nc1nc(NCCO)c2c(cc(-c3ccccc3C(F)(F)F)c3c2ccn3CCO)n1 [Example 8, 2-[3-Amino-7-(2-hydroxy-ethyl)-6-(2-trifluoromethyl-phenyl)-7H-pyrrolo[3,2-f]quinazolin-1-ylamino]-ethanol trifluoro-acetic acid salt]
